Measurements as given in patent US20140323428A1, “ANTINEURITIC PHARMACEUTICAL COMBINATION AND COMPOSITIONS” (priority 2011, published 2014).
Entries after “also recorded” stand apart in the source; their conditions may differ. Read-outs that look alike come from different tables or passages of the source.

How the values were obtained:
[1] = tested on: rats having neuropathic pain; assay: Motor incoordination observed after oral administration in the allodynia study; details: rat, in vivo, 300 mg/kg
Experimental: However, with the higher dose (300 mg/kg) the effect was maintained even for 24 hours.
With the higher dose (30 mg/kg) motor incoordination was observed between 1 and 7 hours, whereas with the 10 mg/kg dose, incoordination was observed between 3 and 4 hours after the administration.

[2] = tested on: rats subjected to L5/L6 spinal nerve ligation; assay: Tactile allodynia (von Frey filaments, 50% withdrawal threshold, % MPE) in rats with L5/L6 spinal nerve ligation; assay type: in vivo, rat; details: for ED50: Rattus norvegicus, read-out: ED50 of the anti-allodynic effect, antiepileptic alone; for Effect on 50% withdrawal threshold (anti-allodynic effect): oxcarbazepine 30-300 mg/kg, pregabalin 0.3-30 mg/kg, vitamin B12 0.06-6 mg/kg
Experimental: 6-week-old female Wistar rats having a body weight of 140-160 g, were used. Each rat was studied only once and sacrified. The Guidelines for pain investigations in animals (Zimmermann, 1983) were used in all the experiments.
The rats were anesthesized via intraperitoneal route with a mixture of ketamine/xylazine (45 and 12 mg/kg, respectively). A partial incision was carried out in the left transverse lumbar area for isolating and ligating the L5 and L6 left spinal nerves with a silk suture 6-0. The ligation was carried out next to the formation of the sciatic nerve and distal to the dorsal root ganglion. Subsequently, the wound was sutured. Conduct tests were performed 12 days after surgery.
For the determination of tactile allodynia, the rats were placed in individual plastic boxes having a stainless steel metallic mesh bottom during 30 minutes, for their adaptation. The tactile threshold test is based in the induction of the animal's left paw withdrawal to gentle mechanical stimuli. The paw was stimulated by applying mechanical force using different Von Frey filaments ranging from 2.36 g to 6.65 g. The thinner the filament's thickness is, the fewer force is applied, and viceversa. For stimulating the animal's paw, the intermediate filament (3.41 g) was firstly used. The left paw elevation in ten seconds was taken as a positive response and a stimulus with a lower caliber filament was applied. If no withdrawal of the animal's paw occurred, it was considered as a negative response, then a stronger stimulus was applied with the next filament until the animal responded.
Once a change in the response took place, either positive or negative, the stimulation was carried out 4 more times, taking a series of 6 patterns of positive and negative responses (Chaplan et al., 1994). The response patterns were tabulated and the 50% response threshold was calculated by using the Dixon formula (1980).
Graphs of the 50% withdrawal threshold (g) as a function of time (h) were constructed from the obtained data
50% withdrawal threshold (g)=(10^[Xf+Kδ])/10,000
From the data of the 50% withdrawal threshold, bar graphs and dose response curves were constructed for the percentage of anti-allodynic effect represented as the percentage of the maximum possible effect (% MPE), by using the following formula:
% MPE=[(AUC drug−AUC vehicle/(AUC sham−AUC vehicle)]×100
In both curves the value of the ED50 was determined.

[3] = cited from earlier work
patients = details: doses of from 300 to 600 mg; cited from earlier work
plasmatic proteins = details: cited from earlier work
[4] = tested on: tactile allodynia induced by the linkage of the spinal nerves L5 and L6; details: cited from earlier work

Compound | Motor incoordination, time window after administration [1] [h] | ED50 ([2]; oral, single agent, from dose-response curves) [mg/kg] | Time of maximum anti-allodynic effect ([2]; oral) | Time for which the anti-allodynic effect was maintained ([2]; oral, higher dose 300 mg/kg) [h] | Effect on 50% withdrawal threshold (anti-allodynic effect) ([2]; oral) | Bioavailability ([3]; after an oral dose) [%] | Time of maximum plasma peaks ([3]; after an oral dose) | Excreted by the urinary route ([3]; in vivo) | Half-life of elimination ([3]; in vivo) [h] | Metabolism ([3]; in vivo) | Oral absorption ([3]; oral) | Adverse reaction: dizziness (patients) | Adverse reaction: drowsiness (patients) | Binding to plasmatic proteins (plasmatic proteins) | ED50 ([2]; po) [mg/kg] | Analgesic effect at 24 hours ([2]; oral, 24 hours after administration) | Effect on tactile allodynia [4] | Analgesic effect at 8 hours ([2]; oral, 8 hours after administration)
NC(=O)N1c2ccccc2CC(=O)c2ccccc21 [oxcarbazepine] | 2 to 8 | 78.8 | about 3 hours | ≥ 24 | dose-dependent way; also recorded: significantly increased | – | – | – | – | – | – | – | – | – | – | – | – | –
CC(C)C[C@H](CN)CC(=O)O [pregabalin] | – | – | about 2 hours | – | dose-dependent way; also recorded: significantly increased | 90 | an hour and a half | about 98% | 6.3 | minimal metabolism | quickly absorbed | 27-46% | 15-25% | does not link to plasmatic proteins | 3.3 | no longer observed | – | –
cyanocobalamin [vitamin B12] | – | – | about 3 hours | – | significantly increased | – | – | – | – | – | – | – | – | – | – | – | capable of reducing tactile allodynia | no longer observed
